PubChem BioAssay (NCI)
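Method: 48-hour compound exposure of cells in 96-well plates, five concentrations, linear interpolation of endpoints. Abbreviation: GI50, concentration required for 50% inhibition of growth. TGI is the concentration that stops growth completely.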

Experiments:
Assay in all cases: NCI-60 cell line screen, 48 h
SK-MEL-5 melanoma = tested on: SK-MEL-5 melanoma
PC-3 prostate = tested on: PC-3 prostate
UO-31 renal = tested on: UO-31 renal
A549 NSCLC = tested on: A549 NSCLC
NCI-H23 lung = tested on: NCI-H23 lung
IGROV1 ovarian = tested on: IGROV1 ovarian
HT29 colon = tested on: HT29 colon
SNB-19 CNS = tested on: SNB-19 CNS
TK-10 renal = tested on: TK-10 renal
SF-268 CNS = tested on: SF-268 CNS
OVCAR-8 ovarian = tested on: OVCAR-8 ovarian
BT-549 breast = tested on: BT-549 breast
A498 renal = tested on: A498 renal
OVCAR-3 ovarian = tested on: OVCAR-3 ovarian
SNB-75 CNS = tested on: SNB-75 CNS
RXF 393 renal = tested on: RXF 393 renal
SF-295 CNS = tested on: SF-295 CNS
KM12 colon = tested on: KM12 colon
SF-539 CNS = tested on: SF-539 CNS
UACC-62 melanoma = tested on: UACC-62 melanoma
DU-145 prostate = tested on: DU-145 prostate
RPMI-8226 leukemia = tested on: RPMI-8226 leukemia
MDA-MB-435 = tested on: MDA-MB-435
HOP-92 NSCLC = tested on: HOP-92 NSCLC
SN12C renal = tested on: SN12C renal
SK-MEL-28 melanoma = tested on: SK-MEL-28 melanoma
HCC-2998 colon = tested on: HCC-2998 colon
OVCAR-4 ovarian = tested on: OVCAR-4 ovarian
SK-OV-3 ovarian = tested on: SK-OV-3 ovarian
HCT-116 colon = tested on: HCT-116 colon
786-0 renal = tested on: 786-0 renal
NCI/ADR-RES ovarian = tested on: NCI/ADR-RES ovarian
OVCAR-5 ovarian = tested on: OVCAR-5 ovarian
MCF7 breast = tested on: MCF7 breast
MALME-3M melanoma = tested on: MALME-3M melanoma
HCT-15 colon = tested on: HCT-15 colon
M14 melanoma = tested on: M14 melanoma
MDA-MB-231 breast = tested on: MDA-MB-231 breast
HS 578T breast = tested on: HS 578T breast
NCI-H460 lung = tested on: NCI-H460 lung
NCI-H226 lung = tested on: NCI-H226 lung
HOP-62 NSCLC = tested on: HOP-62 NSCLC
CCRF-CEM leukemia = tested on: CCRF-CEM leukemia
SW-620 colon = tested on: SW-620 colon
SR leukemia = tested on: SR leukemia
COLO 205 colon = tested on: COLO 205 colon
UACC-257 melanoma = tested on: UACC-257 melanoma
MOLT-4 leukemia = tested on: MOLT-4 leukemia
T-47D breast = tested on: T-47D breast
ACHN renal = tested on: ACHN renal
HL-60(TB) leukemia = tested on: HL-60(TB) leukemia
CAKI-1 renal = tested on: CAKI-1 renal
U251 CNS = tested on: U251 CNS
K-562 leukemia = tested on: K-562 leukemia
MDA-MB-468 breast = tested on: MDA-MB-468 breast
EKVX NSCLC = tested on: EKVX NSCLC
SK-MEL-2 melanoma = tested on: SK-MEL-2 melanoma
LOX IMVI melanoma = tested on: LOX IMVI melanoma
NCI-H522 lung = tested on: NCI-H522 lung

## CC1=C(c2cc(-c3ccc(Cl)cc3)c(C#N)c(N)n2)C(c2ccccc2)NC(=S)N1 (stereo not given)
SK-MEL-5 melanoma
  GI50: 6.62 µM
  TGI: 20.1 µM
PC-3 prostate
  GI50: 11 µM
  TGI: 53.1 µM
UO-31 renal
  GI50: 13.3 µM
  TGI: 26.3 µM
A549 NSCLC
  GI50: 48.8 µM
  TGI: > 88 µM
NCI-H23 lung
  GI50: 13.6 µM
  TGI: 29.6 µM
IGROV1 ovarian
  GI50: 17.2 µM
  TGI: 36.4 µM
HT29 colon
  GI50: 12.2 µM
  TGI: 27.6 µM
SNB-19 CNS
  GI50: 16.7 µM
  TGI: 53.8 µM
TK-10 renal
  GI50: 23.1 µM
  TGI: 61 µM
SF-268 CNS
  GI50: 17.6 µM
  TGI: 67.2 µM
OVCAR-8 ovarian
  GI50: 20 µM
  TGI: > 86.4 µM
BT-549 breast
  GI50: 14.1 µM
  TGI: 29.5 µM
A498 renal
  GI50: > 44.5 µM
  TGI: > 62.8 µM
OVCAR-3 ovarian
  GI50: 13.8 µM
  TGI: 47.4 µM
SNB-75 CNS
  GI50: 7.01 µM
  TGI: 47 µM
RXF 393 renal
  GI50: 11.6 µM
  TGI: 24.3 µM
SF-295 CNS
  GI50: 10.8 µM
  TGI: 24.4 µM
KM12 colon
  GI50: 16.9 µM
  TGI: 35.5 µM
SF-539 CNS
  GI50: 10.1 µM
  TGI: 23 µM
UACC-62 melanoma
  GI50: 13.1 µM
  TGI: 26.9 µM
DU-145 prostate
  GI50: 13.1 µM
  TGI: 29.3 µM
RPMI-8226 leukemia
  GI50: 0.692 µM
  TGI: 34.1 µM
MDA-MB-435
  GI50: 7.44 µM
  TGI: 30.3 µM
HOP-92 NSCLC
  GI50: 19.1 µM
  TGI: 62.7 µM
SN12C renal
  GI50: 5.86 µM
  TGI: 21.6 µM
SK-MEL-28 melanoma
  GI50: 14.9 µM
  TGI: 30 µM
HCC-2998 colon
  GI50: 13.4 µM
  TGI: 26.4 µM
OVCAR-4 ovarian
  GI50: 28 µM
  TGI: > 100 µM
SK-OV-3 ovarian
  GI50: 23.7 µM
  TGI: 67.9 µM
HCT-116 colon
  GI50: 0.147 µM
  TGI: 17.6 µM
786-0 renal
  GI50: 16.3 µM
  TGI: 35.4 µM
NCI/ADR-RES ovarian
  GI50: 0.671 µM
  TGI: 26.2 µM
OVCAR-5 ovarian
  GI50: 17.8 µM
  TGI: 35.5 µM
MCF7 breast
  GI50: 0.177 µM
  TGI: 28.5 µM
MALME-3M melanoma
  GI50: 14 µM
  TGI: 32.1 µM
HCT-15 colon
  GI50: 0.171 µM
  TGI: 18.2 µM
M14 melanoma
  GI50: 3.33 µM
  TGI: 25.4 µM
MDA-MB-231 breast
  GI50: 13.6 µM
  TGI: 29.6 µM
HS 578T breast
  GI50: 19.1 µM
  TGI: > 96.2 µM
NCI-H460 lung
  GI50: 20.3 µM
  TGI: 53.8 µM
NCI-H226 lung
  GI50: 15.8 µM
  TGI: 44.6 µM
HOP-62 NSCLC
  GI50: 16 µM
  TGI: 37 µM
CCRF-CEM leukemia
  GI50: 0.303 µM
  TGI: 16.9 µM
SW-620 colon
  GI50: 11 µM
  TGI: 32.5 µM
SR leukemia
  GI50: 0.0842 µM
  TGI: > 48.7 µM
COLO 205 colon
  GI50: 17 µM
  TGI: 33.5 µM
UACC-257 melanoma
  GI50: 16.1 µM
  TGI: 38.8 µM
MOLT-4 leukemia
  GI50: 1.37 µM
  TGI: > 66.2 µM
T-47D breast
  GI50: 11.4 µM
  TGI: 47.5 µM
ACHN renal
  GI50: 15.5 µM
  TGI: 30.9 µM
HL-60(TB) leukemia
  GI50: 0.168 µM
CAKI-1 renal
  GI50: 16.5 µM
  TGI: 43.9 µM
U251 CNS
  GI50: 12.5 µM
  TGI: 28.1 µM
K-562 leukemia
  GI50: 0.277 µM
  TGI: > 100 µM
MDA-MB-468 breast
  GI50: 8.45 µM
  TGI: 22.7 µM
EKVX NSCLC
  GI50: 16.4 µM
  TGI: 42.6 µM
SK-MEL-2 melanoma
  GI50: 17.5 µM
  TGI: 34.2 µM
LOX IMVI melanoma
  GI50: 1.34 µM
  TGI: 14.4 µM
NCI-H522 lung
  GI50: 14.7 µM
  TGI: 29.5 µM

## COC(=O)CNC(=O)COc1c(OC)c(OC)cc2oc(-c3cccc(C(=O)Nc4ccc(Cl)cc4)c3)cc(=O)c12
SK-MEL-5 melanoma
  GI50: 3.75 µM
  TGI: 14.7 µM
PC-3 prostate
  GI50: 10.3 µM
  TGI: 33.7 µM
UO-31 renal
  GI50: 13.8 µM
  TGI: 26.7 µM
A549 NSCLC
  GI50: 7.25 µM
  TGI: 20.6 µM
NCI-H23 lung
  GI50: 7.19 µM
  TGI: 20 µM
IGROV1 ovarian
  GI50: 11.4 µM
  TGI: 24.8 µM
HT29 colon
  GI50: 6.79 µM
  TGI: > 100 µM
SNB-19 CNS
  GI50: 10.6 µM
  TGI: 22.4 µM
TK-10 renal
  GI50: 16.1 µM
  TGI: 34.6 µM
SF-268 CNS
  GI50: 15.1 µM
  TGI: 42.9 µM
OVCAR-8 ovarian
  GI50: 3.64 µM
  TGI: 11.8 µM
BT-549 breast
  GI50: 3.05 µM
  TGI: 12.3 µM
A498 renal
  GI50: 16.3 µM
  TGI: 34.5 µM
OVCAR-3 ovarian
  GI50: 12.4 µM
  TGI: 37.5 µM
SNB-75 CNS
  GI50: 11.9 µM
  TGI: 37.4 µM
RXF 393 renal
  GI50: 3.54 µM
  TGI: 14.9 µM
SF-295 CNS
  GI50: 13.9 µM
  TGI: 26.9 µM
KM12 colon
  GI50: 27.5 µM
  TGI: > 100 µM
SF-539 CNS
  GI50: 8.6 µM
  TGI: 20.9 µM
UACC-62 melanoma
  GI50: 6.1 µM
  TGI: 19.4 µM
DU-145 prostate
  GI50: 10.6 µM
  TGI: 28.3 µM
RPMI-8226 leukemia
  GI50: 6.51 µM
  TGI: > 100 µM
MDA-MB-435
  GI50: 6.57 µM
  TGI: 21.9 µM
HOP-92 NSCLC
  GI50: 4.04 µM
  TGI: 25.9 µM
SN12C renal
  GI50: 4.28 µM
  TGI: 17 µM
SK-MEL-28 melanoma
  GI50: 5.9 µM
  TGI: 18.9 µM
HCC-2998 colon
  GI50: 15.4 µM
  TGI: 70.8 µM
OVCAR-4 ovarian
  GI50: 2.95 µM
  TGI: 10.8 µM
SK-OV-3 ovarian
  GI50: 11.1 µM
  TGI: 23.6 µM
HCT-116 colon
  GI50: 13.9 µM
  TGI: 48.5 µM
786-0 renal
  GI50: 5.19 µM
  TGI: 17.2 µM
NCI/ADR-RES ovarian
  GI50: 9.62 µM
  TGI: 73.4 µM
OVCAR-5 ovarian
  GI50: 7.2 µM
  TGI: 40.1 µM
MCF7 breast
  GI50: 6.05 µM
  TGI: 23.9 µM
MALME-3M melanoma
  GI50: 4.75 µM
  TGI: 17.7 µM
HCT-15 colon
  GI50: 14.8 µM
  TGI: > 100 µM
M14 melanoma
  GI50: 7.98 µM
  TGI: 25 µM
MDA-MB-231 breast
  GI50: 3.57 µM
  TGI: 13 µM
HS 578T breast
  GI50: 4.28 µM
  TGI: 28.5 µM
NCI-H460 lung
  GI50: 4.03 µM
  TGI: 15.1 µM
NCI-H226 lung
  GI50: 4.01 µM
  TGI: 27.6 µM
HOP-62 NSCLC
  GI50: 3.56 µM
  TGI: 11.5 µM
CCRF-CEM leukemia
  GI50: > 100 µM
  TGI: > 100 µM
SW-620 colon
  GI50: 14 µM
  TGI: 69.7 µM
SR leukemia
  GI50: 9.98 µM
  TGI: > 100 µM
COLO 205 colon
  GI50: 4.19 µM
  TGI: 17.8 µM
UACC-257 melanoma
  GI50: 7.35 µM
  TGI: 24.9 µM
MOLT-4 leukemia
  GI50: > 100 µM
  TGI: > 100 µM
T-47D breast
  GI50: 8.16 µM
  TGI: 31.1 µM
ACHN renal
  GI50: 5.84 µM
  TGI: 18.7 µM
HL-60(TB) leukemia
  GI50: 13.3 µM
  TGI: > 100 µM
CAKI-1 renal
  GI50: 18.9 µM
  TGI: 41.6 µM
U251 CNS
  GI50: 4.82 µM
  TGI: 16.5 µM
K-562 leukemia
  GI50: 25.6 µM
  TGI: > 100 µM
MDA-MB-468 breast
  GI50: 27.2 µM
  TGI: > 100 µM
EKVX NSCLC
  GI50: 12.4 µM
  TGI: 30.1 µM
SK-MEL-2 melanoma
  GI50: 10.1 µM
  TGI: 25 µM
LOX IMVI melanoma
  GI50: 5.02 µM
  TGI: 19.5 µM
NCI-H522 lung
  GI50: 7.22 µM
  TGI: 20.1 µM
